Assays:
Type in all cases: physicochemical
[1] = Degradation in the presence of butylamine under biologically relevant conditions (37 °C, pH 7.4); conditions: pH 7.4 D2O; for degraded: 10 mM
Procedure: To investigate how amines degrade polysulfides in the body, NAC trisulfide was dissolved in pH 7.4 in D2O at a concentration of 10 mM. […] Butylamine was added and the reaction was maintained at body temperature (37 °C). Degradation was tracked using ^1H NMR spectroscopy (Figure 8).
N-Acetylcysteine trisulfide (14.4 mg, 36 μmol) was dissolved in 3.6 mL of D2O buffered to pH 7.4. Butylamine (11 μL, 110 μmol) was added and the contents were heated to 37 °C. The ^1H NMR spectra were taken periodically to track degradation.

[2] = Equilibrium between di-, tri- and tetrasulfides in the presence of elemental sulfur (1H NMR); conditions: water with elemental sulfur, 40 °C, after 15 days, no amine
Procedure: To test this hypothesis, a reaction was completed in D2O with elemental sulfur, NAC disulfide, and butylamine.
To understand why the degradation leveled off, NAC trisulfide was dissolved in water, elemental sulfur was added, and the contents were heated to 40 °C.
N-Acetylcysteine disulfide (9.3 mg, 23 μmol) was dissolved in 600 μL of D2O. Elemental sulfur (6.8 mg, 0.21 mmol) and butylamine (18.5 mg, 0.25 mmol) were added, and the ^1H NMR spectra were periodically obtained to track the equilibrium.

[3] = Stability in water/D2O buffered at different pH values, tracked by 1H NMR
Source text: The ^1H NMR spectra of NAC and the disulfide, trisulfide, and tetrasulfide of NAC had peaks at unique values for chemical shifts and allowed for their easy characterization (Figure 3). Pure chemicals of each sulfide were synthesized and characterized by ^1H and ^13C NMR spectroscopy as well as by high-resolution mass spectroscopy. The unique chemical shifts of the peaks for the Ha and Hb/Hc protons on the sulfides allowed the integration of each sulfide to be determined.
The stability of NAC trisulfide in water buffered at pH values of 5.8, 7.4, and 9.0 was measured.
The stability of cysteine trisulfide was investigated in buffered water at pH values of 5.8, 7.0, and 9.0. […] At pH values of 5.8, 7.0, and 9.0, the cysteine trisulfide was soluble and its ^1H NMR spectra were obtained.
The stability of glutathione trisulfide was investigated at pH values of 5.8, 7.4, and 9.0 (Figure S14a). The degradation of glutathione trisulfide was more rapid at pH values of 5.8 and 7.4 than that of the trisulfides of NAC and cysteine. At an acidic pH of 5.8, 71% of glutathione trisulfide degraded after 10 days. At pH values of 7.4 and 9.0, glutathione trisulfide degraded 79 and 81%, respectively, at day 9. […] The degradation of glutathione trisulfide reached an equilibrium of approximately 20% with the disulfide due to the reaction catalyzed by amine with elemental sulfur. Rate constants and half-lives were obtained for the degradation of glutathione trisulfide at each pH value using early data points unaffected by the equilibrium. At pH values of 5.8, 7.4, and 9.0, the estimated half-lives were 6.3 days (151 h), 0.90 days (21.6 h), and 0.79 days (19.0 h), respectively (Figure S14b).
The stability of NAC tetrasulfide was investigated in D2O buffered at pH values of 5.8, 7.4, and 9.0 (Figure S16a). At a pH of 5.8, NAC tetrasulfide degraded by 13% after 9 days. At pH values of 7.4 and 9.0, the tetrasulfide degraded by 55 and 52%, respectively, after 9 days. At each pH, the degradation product was NAC trisulfide, elemental sulfur, and a small amount of NAC disulfide (<3%). […] Estimated rate constants and half-lives for the degradation of NAC tetrasulfide at each pH were obtained. At pH values of 5.8, 7.4, and 9.0, the estimated half-lives were 53.3, 7.5, and 8.2 days, respectively (Figure S16b).

[4] = Kinetics of degradation of trisulfides in the presence of a thiol (1H NMR); conditions: water, NAC added, vial uncapped to allow H2S to evaporate, after 1 day
Procedure: To investigate the rate of reaction of trisulfides with an added thiol and to characterize the degradation products, 5 mM trisulfides of cysteine, glutathione, and NAC were separately added to […] For instance, 5 equiv of cysteine was added to cysteine trisulfide and 5 equiv of NAC was added to NAC trisulfide. The pH was buffered to a pH of 7.0 to ensure that each trisulfide was soluble and to closely mimic in vivo pH.
Cysteine trisulfide (0.7 mg, 2.6 μmol) was dissolved in 500 μL of D2O buffered to pH 7.0, yielding a 5 mM solution. Cysteine (1.5 mg, 12.4 μmol) was added, and the ^1H NMR spectra were periodically obtained to track degradation.
Glutathione trisulfide (1.6 mg, 2.6 μmol) was added to 500 μL of D2O buffered to a pH of 7.0, yielding a 5 mM solution. Glutathione (3.8 mg, 12.4 μmol) was added, and the ^1H NMR spectra were obtained periodically to track degradation.
N-Acetylcysteine trisulfide (1.0 mg, 2.6 μmol) was dissolved in 500 μL of D2O buffered to pH 7.0, yielding a 5 mM solution. N-Acetylcysteine (2.1 mg, 12.4 μmol) was added, and the ^1H NMR spectra were obtained periodically to track degradation.
Cysteine trisulfide (0.7 mg, 2.6 μmol) was dissolved in 500 μL of D2O buffered to pH 7.0, yielding a 5 mM solution. tert-Butanol (0.8 μL, 2.6 μmol) was added as an internal standard. […]

Solubility observations = conditions: CDCl3 and acetone

Compound: CC(=O)N[C@@H](CSSSC[C@H](NC(C)=O)C(=O)O)C(=O)O [NAC trisulfide, N-Acetylcysteine Trisulfide]
- degraded ([1]; after 1 h): 45%
- degraded ([1]; after 2 h): 81%
- degraded ([1]; after 1 day): 81%
- half-life at 10 mM ([1]; D2O buffered to pH 7.4 with butylamine, early data points, read-out: estimated half-life (converted)): 46.2 min
- disulfide formed [2]: 12%
- tetrasulfide formed [2]: 11%
- stability ([3]; all pH values tested (abstract)): stable
- degradation ([3]; water buffered at pH 5.8, 7.4 and 9.0, after 8 days): no observable degradation
- trisulfide remaining [4]: no NAC trisulfide was observed
- solubility (Solubility observations): very limited solubility
